# Data published in patent US20210145830A1, “MATERIALS AND METHODS FOR TREATING CANCER” (Mayo Foundation for Medical Education and Research, priority 2018, published 2021).
# Entries after “also recorded” stand apart in the source; their conditions may differ.
# Columns and labels:
# Blood T cells = assay: Correlative analysis of blood T cells in Phase I trial of TP0903 (NCT02729298); assay type: in vivo, patients with solid tumors
# Source text: FIG. 20. Multiparametric flow cytometric analysis of peripheral blood samples obtained before and after TP0903 treatment in patients with advanced solid tumors. A. Representative CD4^+CD25^+Foxp3^+ regulatory T cells (Treg) (upper right quadrants) at baseline (left) and after treatment (right). Data were pooled from three independent experiments with peripheral blood mononuclear cells from three donors. B. Representative flow plot of CD4^+ and CCR6^− negative cells.
# The preclinical findings were validated in a correlative analyses of Phase I clinical trial of TP0903 for patients with solid tumors (NCT02729298). Blood T cells from 3 patients were isolated and analyzed before and a week after treatment with TP0903. […] These findings are further investigated in a Phase I clinical trial of TP0903 in relapsed/refractory CLL (NCT03572634).
# CART19 cells = assay: Th2/Th1 T cell subtype analysis during CART19 expansion; assay type: cell-based; details: irradiated JeKo-1; TP0903 10-30 nM; day 3
# Description: FIG. 22A-C. In vitro experiment for the combination of CART19 and TP0903. A. CART19 were cocultured at different effector-to-target ratio (E:T) with luciferase-positive JeKo-1. At 48 hours, cell killing was assessed by luminescence. […] The means and SEM are shown (**, p<0.005, *, p<0.05, one-way ANOVA analysis). n.s., not statistically significant. B. CART19 degranulation assay and cytokine production in the presence of TP0903. CART19 were cocultured with JeKo-1 for 4 hours in the presence of TP0903 doses of TP0903 (10-65 nM). […] C. Th2/Th1 T cell subtype analysis during CART19 expansion in the presence pf TP0903. CART19 cells were stimulated with lethally irradiated (120 Gy) JeKo-1 cell lines in the presence of increasing doses of TP0903 (10-30 nM). At the day 3, Th1 and Th2 cells were defined using CD4, CCR6, CCR4 and CXCR3 expression. […] The means and SEM are shown (*, p<0.05, one-way ANOVA analysis). n.s., not statistically significant.
# CART19 [1] = assay: CART19 proliferation assay in the presence of TP0903; assay type: cell-based; details: 5 days
# Description: FIG. 2 contains an exemplary timeline for a CART19 proliferation assay in the presence of TP0903. UTDs or CART19 were incubated with Jeko in the presence of TP0903 in 1:1 ratio. At day 5, total T cell numbers were evaluated with CountBright quantification.
# T cells were washed and re-suspended at 1×10^7/mL in 100 μL of phosphate-buffered saline and labeled with 100 μL of carboxyfluorescein succinimidyl ester (CFSE) 2.5 μM (Life Technologies) for 5 minutes at 37° C. The reaction was then quenched with cold R10, and the cells were washed three times. Targets were irradiated at a dose of 100 Gy. T cells were incubated at a 1:1 ratio with irradiated target cells for 120 hours. Cells were then harvested, stained for CD3, CAR and Live Dead aqua (Invitrogen), and Countbright beads (Invitrogen) were added prior to flow cytometric analysis.
# UTDs or CART19 were incubated with Jeko cell line or primary CLL cells in the presence of TP0903, at 1:1 ratio for 5 days. At the end of the experiment, cells were harvested and stained for CD3, live dead staining was performed, and counti bright beads were added prior to flow cytometric analyses (FIG. 2). Absolute T cell numbers were calculated based on this. […] Low doses of TP0903 (10 nM) increased the number of CART19 cells. A high dose of TP0903 (>100 nM) decreased the number of CART19.
# CART19 [2] = assay: CART19 cytokine release (Luminex) in the presence of TP0903; assay type: cell-based, human; details: for Th2 cytokines IL-4 and IL-5 / cytokine release syndrome (CRS) cytokines (MCP1, IL-6, IL-10, MIP-b): Jeko or CLL cells
# Description: FIG. 7 contains an exemplary timeline for a cytokine assay in the presence of TP0903. UTDs or CART19 were incubated with Jeko in the presence of TP0903 in the 1 to 1 ratio. At day 3, supernatant was harvested and analyzed by 32-plex Luminex array.
# FIG. 23. CART19 cytokine production in the presence of TP0903. CART19 cells or untransduced T cells were co-cultured with JeKo-1 cells or leukemic B cells derived from patients with chronic lymphocytic leukemia for 3 days and supernatants were analyzed for human cytokines (Luminex, 38-plex).
# FIG. 27. CART19 cytokine production in the presence of TP-0903. CART19 cells or untransduced T cells were co-cultured with JeKo-1 cells (left heat map) or leukemic B cells (right heat map) derived from patients with chronic lymphocytic leukemia for 3 days, and supernatants were analyzed for human cytokines (Luminex, 38-plex).
# Effector and target cells were incubated at a 1:1 ratio in T cell media for 24 or 72 hours as indicated. Supernatant was harvested and analyzed by 30-plex Luminex array according to the manufacturer's protocol (Millipore).
# UTDs or CART19 were incubated with Jeko cell line or primary CLL cells in the presence of TP0903, at 1:1 ratio for 3 days (FIG. 7). At the end of the experiment, supernatant was harvested and analyzed for cytokines by 30-plex multiplex. […] TP0903 suppressed critical cytokines for the development of CRS after CART cell therapy (FIG. 10).
# [3] = 3 patients, before vs a week after treatment
# [4] = CD4+ CCR6− cells, after TP0903 treatment
# [5] = 3 days, supernatant, listed as TP-0903
smiles,measurement,setting,value
CN1CCN(Cc2ccc(Nc3ncc(Cl)c(Nc4ccccc4S(=O)(=O)N(C)C)n3)cc2)CC1 [TP0903],Th phenotype,Blood T cells; [3],polarization to a Th1 phenotype
same,Tregs,Blood T cells; [3],significant reduction
same,inhibitory receptors,Blood T cells; [3],reduction
same,CXCR3+CCR4+ (double positive) fraction,Blood T cells; [4],increase
same,CXCR3−CCR4+ fraction (Th2),Blood T cells; [4],Remarked reduction
same,"Th1/Th2 phenotype (CD4, CCR6, CCR4, CXCR3)",CART19 cells,major shift toward Th1 phenotype
same,CART cell specific proliferation,CART19 [1]; 1:1 with Jeko or primary CLL cells,did not impair; also recorded: does not inhibit
same,number of CART19 cells,CART19 [1]; high dose of TP0903 (>100 nM),decreased
same,number of CART19 cells,CART19 [1]; low doses of TP0903 (10 nM),increased
same,"CART Th1 specific cytokines (IFN-γ, TNF-α)","CART19 [2]; 1:1 with Jeko or primary CLL cells, 3 days, supernatant",only high doses (supra-physiological) suppressed; also recorded: maintains
same,IL-8,"CART19 [2]; JeKo-1 or CLL leukemic B cells, 3 days, Luminex 38-plex",downregulated
same,"cytokine production ability of IFN-γ, GM-CSF, TNF-α, and IL-2","CART19 [2]; JeKo-1 or CLL patient leukemic B cells, 3 days, Luminex 38-plex",maintained
same,Th2 cytokines IL-4 and IL-5,"CART19 [2]; 3 days, supernatant",suppresses; also recorded: significantly downregulated
same,"cytokine release syndrome (CRS) cytokines (MCP1, IL-6, IL-10, MIP-b)","CART19 [2]; 3 days, supernatant",suppresses; also recorded: reduction; also recorded: remarkably downregulated
same,Th2 cytokines IL-4 and IL-5,CART19 [2]; [5],significantly downregulated
same,"cytokine release syndrome (CRS) cytokines (MCP1, IL-6, IL-10, MIP-b)",CART19 [2]; [5],remarkably downregulated
same,Th polarization of CART cells,CART19 [2]; stimulated with JeKo or leukemic B cells from CLL patients,polarization of CART cells into a Th1 phenotype
